# Source: PubChem BioAssay AID1963858 (Molecular Pharmacology Branch, DTP, NCI, 2024)
# Test system: HOP-62 multicell spheroids with HUVEC/MSC, viability
# Assay: Anticancer human tumor HOP-62 cell line growth inhibition [KRAS2];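 also: viability read after a week of compound exposure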;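 as to viability, T/C: 100% = DMSO vehicle-treated spheroids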
# Settings: for IC50: curve of first compound; for viability, T/C: stronger effect = lower value
# Summary of the method: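 KRAS-mutant tumor cells were grown as spheroids with HUVEC endothelial cells and human MSCs as stroma. Targeted agents were tested alone and with KRAS pathway inhibitors. Doses started at or near clinical Cmax, or 10 microM, descending half-log.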
# [1] = second compound 0.1 µM, first compound 0.0316 µM
# [2] = second compound 0.1 µM, first compound 0.1 µM
# [3] = second compound 0.1 µM, first compound 0.316 µM
# [4] = second compound 0.1 µM, first compound 1 µM
# [5] = second compound 0.1 µM, first compound 3.16 µM
# [6] = second compound 0.1 µM, first compound 10 µM
# [7] = second compound 0.316 µM, first compound 0.0316 µM
# [8] = second compound 0.316 µM, first compound 0.1 µM
# [9] = second compound 0.316 µM, first compound 0.316 µM
# [10] = second compound 0.316 µM, first compound 1 µM
# [11] = second compound 0.316 µM, first compound 3.16 µM
# [12] = second compound 0.316 µM, first compound 10 µM
# [13] = second compound 1 µM, first compound 0.0316 µM
# [14] = second compound 1 µM, first compound 0.1 µM
# [15] = second compound 1 µM, first compound 0.316 µM
# [16] = second compound 1 µM, first compound 1 µM
# [17] = second compound 1 µM, first compound 3.16 µM
# [18] = second compound 1 µM, first compound 10 µM
# [19] = second compound 3.16 µM, first compound 0.0316 µM
# [20] = second compound 3.16 µM, first compound 0.1 µM
# [21] = second compound 3.16 µM, first compound 0.316 µM
# [22] = second compound 3.16 µM, first compound 1 µM
# [23] = second compound 3.16 µM, first compound 3.16 µM
# [24] = second compound 3.16 µM, first compound 10 µM
# [25] = second compound 10 µM, first compound 0.0316 µM
# [26] = second compound 10 µM, first compound 0.1 µM
# [27] = second compound 10 µM, first compound 0.316 µM
# [28] = second compound 10 µM, first compound 1 µM
# [29] = second compound 10 µM, first compound 3.16 µM
# [30] = second compound 10 µM, first compound 10 µM
# [31] = second compound 0.1 µM, first compound 0.01 µM
# [32] = second compound 0.316 µM, first compound 0.01 µM
# [33] = second compound 1 µM, first compound 0.01 µM
# [34] = second compound 3.16 µM, first compound 0.01 µM
compound,measurement,setting,value
COc1cc(Nc2ncc3c(n2)-c2ccc(Cl)cc2C(c2c(F)cccc2OC)=NC3)ccc1C(=O)O + CNCc1ccccc1-c1csc(C(C)Nc2nc(C)nc3cc(OC)c(OC)cc23)c1,IC50,second compound 0.1 µM,0.274 µM
same,IC50,second compound 0.316 µM,0.143 µM
same,IC50,second compound 1 µM,0.0396 µM
same,IC50,second compound 3.16 µM,< 0.0316 µM
same,IC50,second compound 10 µM,< 0.0316 µM
same,"viability, T/C",[1],69.4%
same,"viability, T/C",[2],57.7%
same,"viability, T/C",[3],44.5%
same,"viability, T/C",[4],43.8%
same,"viability, T/C",[5],30.5%
same,"viability, T/C",[6],19.6%
same,"viability, T/C",[7],59.5%
same,"viability, T/C",[8],54.2%
same,"viability, T/C",[9],42.4%
same,"viability, T/C",[10],37%
same,"viability, T/C",[11],27.3%
same,"viability, T/C",[12],20.3%
same,"viability, T/C",[13],51.4%
same,"viability, T/C",[14],46.3%
same,"viability, T/C",[15],37.3%
same,"viability, T/C",[16],34.6%
same,"viability, T/C",[17],27.4%
same,"viability, T/C",[18],17.9%
same,"viability, T/C",[19],15.7%
same,"viability, T/C",[20],0.89%
same,"viability, T/C",[21],10.6%
same,"viability, T/C",[22],4.93%
same,"viability, T/C",[23],0.62%
same,"viability, T/C",[24],4.15%
same,"viability, T/C",[25],0.12%
same,"viability, T/C",[26],0.2%
same,"viability, T/C",[27],1.86%
same,"viability, T/C",[28],0.11%
same,"viability, T/C",[29],2.34%
same,"viability, T/C",[30],0.17%
CC1COCCN1c1cc(-c2ccnn2C)c2ccnc(-c3ccn[nH]3)c2n1 (stereo not drawn) + C=CC(=O)N1CCN(c2nc(OCC3CCCN3C)nc3c2CCN(c2cccc4cccc(C)c24)C3)CC1CC#N,IC50,second compound 0.0316 µM,0.0399 µM
same,IC50,second compound 0.1 µM,0.0309 µM
same,IC50,second compound 0.316 µM,0.0122 µM
same,IC50,second compound 1 µM,< 0.01 µM
same,IC50,second compound 3.16 µM,< 0.01 µM
same,"viability, T/C","second compound 0.0316 µM, first compound 0.01 µM",94.9%
same,"viability, T/C","second compound 0.0316 µM, first compound 0.0316 µM",55.4%
same,"viability, T/C","second compound 0.0316 µM, first compound 0.1 µM",28.6%
same,"viability, T/C","second compound 0.0316 µM, first compound 0.316 µM",17.6%
same,"viability, T/C","second compound 0.0316 µM, first compound 1 µM",14%
same,"viability, T/C","second compound 0.0316 µM, first compound 3.16 µM",12.8%
same,"viability, T/C",[31],79.4%
same,"viability, T/C",[1],49.3%
same,"viability, T/C",[2],22.7%
same,"viability, T/C",[3],12%
same,"viability, T/C",[4],11.7%
same,"viability, T/C",[5],10%
same,"viability, T/C",[32],54%
same,"viability, T/C",[7],30.3%
same,"viability, T/C",[8],19.4%
same,"viability, T/C",[9],10.9%
same,"viability, T/C",[10],9.7%
same,"viability, T/C",[11],7.82%
same,"viability, T/C",[33],27.2%
same,"viability, T/C",[13],18.6%
same,"viability, T/C",[14],9.29%
same,"viability, T/C",[15],8.75%
same,"viability, T/C",[16],8.51%
same,"viability, T/C",[17],7.02%
same,"viability, T/C",[34],2.88%
same,"viability, T/C",[19],1.59%
same,"viability, T/C",[20],0.93%
same,"viability, T/C",[21],0.21%
same,"viability, T/C",[22],0.17%
same,"viability, T/C",[23],3.92%
CC1(C)CCC(CN2CCN(c3ccc(C(=O)NS(=O)(=O)c4ccc(NCC5CCOCC5)c([N+](=O)[O-])c4)c(Oc4cnc5[nH]ccc5c4)c3)CC2)=C(c2ccc(Cl)cc2)C1 + CNCc1ccccc1-c1csc(C(C)Nc2nc(C)nc3cc(OC)c(OC)cc23)c1,IC50,second compound 0.1 µM,5.71 µM
same,IC50,second compound 0.316 µM,4.57 µM
same,IC50,second compound 1 µM,3.38 µM
same,IC50,second compound 3.16 µM,< 0.0316 µM
same,IC50,second compound 10 µM,< 0.0316 µM
same,"viability, T/C",[1],92.1%
same,"viability, T/C",[2],89.5%
same,"viability, T/C",[3],82.5%
same,"viability, T/C",[4],95.3%
same,"viability, T/C",[5],71.6%
same,"viability, T/C",[6],29.5%
same,"viability, T/C",[7],81.2%
same,"viability, T/C",[8],77%
same,"viability, T/C",[9],76.5%
same,"viability, T/C",[10],81.6%
same,"viability, T/C",[11],61.8%
same,"viability, T/C",[12],24.9%
same,"viability, T/C",[13],90.1%
same,"viability, T/C",[14],76.2%
same,"viability, T/C",[15],67.8%
same,"viability, T/C",[16],73.1%
same,"viability, T/C",[17],54%
same,"viability, T/C",[18],14.9%
same,"viability, T/C",[19],1.65%
same,"viability, T/C",[20],25.9%
same,"viability, T/C",[21],17.9%
same,"viability, T/C",[22],40.3%
same,"viability, T/C",[23],13.5%
same,"viability, T/C",[24],1.45%
same,"viability, T/C",[25],0.12%
same,"viability, T/C",[26],0.16%
same,"viability, T/C",[27],0.16%
same,"viability, T/C",[28],0.18%
same,"viability, T/C",[29],0.15%
same,"viability, T/C",[30],0.22%
CC(=O)Nc1cccc(-n2c(=O)n(C3CC3)c(=O)c3c(Nc4ccc(I)cc4F)n(C)c(=O)c(C)c32)c1 + CNCc1ccccc1-c1csc(C(C)Nc2nc(C)nc3cc(OC)c(OC)cc23)c1,IC50,second compound 0.1 µM,0.0043 µM
same,IC50,second compound 0.316 µM,0.00284 µM
same,IC50,second compound 1 µM,0.00232 µM
same,IC50,second compound 3.16 µM,< 0.0001 µM
same,IC50,second compound 10 µM,< 0.0001 µM
same,"viability, T/C","second compound 0.1 µM, first compound 0.0001 µM",104%
same,"viability, T/C","second compound 0.1 µM, first compound 0.000316 µM",97.2%
same,"viability, T/C","second compound 0.1 µM, first compound 0.001 µM",81.6%
same,"viability, T/C","second compound 0.1 µM, first compound 0.00316 µM",60.1%
same,"viability, T/C",[31],28%
same,"viability, T/C",[1],27.4%
same,"viability, T/C","second compound 0.316 µM, first compound 0.0001 µM",106%
same,"viability, T/C","second compound 0.316 µM, first compound 0.000316 µM",97.4%
same,"viability, T/C","second compound 0.316 µM, first compound 0.001 µM",77%
same,"viability, T/C","second compound 0.316 µM, first compound 0.00316 µM",48%
same,"viability, T/C",[32],30.1%
same,"viability, T/C",[7],29.9%
same,"viability, T/C","second compound 1 µM, first compound 0.0001 µM",91.2%
same,"viability, T/C","second compound 1 µM, first compound 0.000316 µM",92.8%
same,"viability, T/C","second compound 1 µM, first compound 0.001 µM",74.1%
same,"viability, T/C","second compound 1 µM, first compound 0.00316 µM",41.4%
same,"viability, T/C",[33],26.8%
same,"viability, T/C",[13],25.7%
same,"viability, T/C","second compound 3.16 µM, first compound 0.0001 µM",7.87%
same,"viability, T/C","second compound 3.16 µM, first compound 0.000316 µM",0.24%
same,"viability, T/C","second compound 3.16 µM, first compound 0.001 µM",3.22%
same,"viability, T/C","second compound 3.16 µM, first compound 0.00316 µM",0.35%
same,"viability, T/C",[34],0.07%
same,"viability, T/C",[19],0.24%
same,"viability, T/C","second compound 10 µM, first compound 0.0001 µM",0.13%
same,"viability, T/C","second compound 10 µM, first compound 0.000316 µM",0.15%
same,"viability, T/C","second compound 10 µM, first compound 0.001 µM",2.8%
same,"viability, T/C","second compound 10 µM, first compound 0.00316 µM",0.12%
same,"viability, T/C","second compound 10 µM, first compound 0.01 µM",2.27%
same,"viability, T/C",[25],0.31%
COc1cc2nccc(Oc3ccc(NC(=O)C4(C(=O)Nc5ccc(F)cc5)CC4)cc3)c2cc1OC,"viability, T/C",compound 0.0316 µM,96.9% [middle of 5 runs]
same,"viability, T/C",compound 1 µM,99.2% [middle of 5 runs]
same,"viability, T/C",compound 3.16 µM,78.9% [middle of 5 runs]
